Consider 7 compounds from PMC4428790, “In Silico and In Vitro Analysis of Bacoside A Aglycones and Its Derivatives as the Constituents Responsible for the Cognitive Effects of Bacopa monnieri” (PLoS ONE, 2015).

In test [1] the target is T1, M1 receptor (recombinant human membrane, CHO cells) (Homo sapiens, UniProt P11229).
T1 construct: purchased Perkin Elmer Lot no; 1706299; host or cells: CHO cells
T1 sequence (P11229 1-460): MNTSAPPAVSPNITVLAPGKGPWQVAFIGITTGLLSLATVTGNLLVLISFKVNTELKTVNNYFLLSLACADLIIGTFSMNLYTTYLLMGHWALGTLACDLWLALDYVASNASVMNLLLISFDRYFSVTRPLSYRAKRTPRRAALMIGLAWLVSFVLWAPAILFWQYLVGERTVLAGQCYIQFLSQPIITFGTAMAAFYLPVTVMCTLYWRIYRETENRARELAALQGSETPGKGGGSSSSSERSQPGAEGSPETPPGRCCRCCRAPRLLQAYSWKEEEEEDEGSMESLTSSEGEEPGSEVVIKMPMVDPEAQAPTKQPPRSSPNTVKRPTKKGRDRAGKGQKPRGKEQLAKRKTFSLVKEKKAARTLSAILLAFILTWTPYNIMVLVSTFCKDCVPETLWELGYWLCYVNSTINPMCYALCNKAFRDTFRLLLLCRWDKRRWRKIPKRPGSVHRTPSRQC
The test is described as follows: radioligand receptor binding assay, [3H]-NMS displacement. As to conditions: for IC50: mean ± S.D., 0.1 nM [3H]-NMS, assayed up to 100 or 30 μM. The text has this:
(§1) Recombinant human membrane preparations for M1 (expressed in CHO cells; Lot no. 1706299), 5-HT1A (HEK293 cells; no. 1812363), 5-HT2A (CHO cells; no. 1813092), D1 (L cells; no. 1840059), and D2S (CHO cells; no. 1820984) receptors and MicroScint-O scintillation cocktail were procured from Perkin Elmer (Waltham, MA, USA). [^3H] N-methylscopolamine (NMS), [^3H] 8-OH-DPAT, [^3H] ketanserin, [^3H] SCH 23390 and [^3H] methylspiperone were purchased from American Radiolabeled Chemicals (St. Louis, MO, USA). […] (DTNB) and donepezil hydrochloride were obtained from Sigma-Aldrich (St. Louis, MO, USA). Bacoside A, bacoside A3, bacopaside II, bacopaside X and bacopasaponin C were purchased from Chromadex Inc. (Irvine, CA, USA). Jujubogenin and ebelin lactone were purchased from Shanghai IS Chemical Technology Ltd. (Jinshan, Shanghai, China). Unless stated otherwise, all other reagents of analytical grade were obtained through standard commercial sources.
(§2) The assay was performed according to the methods published previously. […] Pseudojujubogenin and bacogenin A1 were not available for purchase at the time when the work was carried out. All compounds were dissolved in dimethylsulfoxide (DMSO) and the solvent was kept below 1% (v/v) in the final reaction mixture. Briefly, in each well, 100 μl of the respective membrane preparations (μg/well), 50 μl of the respective [^3H]-ligand and 50 μl of the test compounds were added and the total assay reaction volume was made up to 200 μl by adding assay buffer. […] The reaction mixture was incubated for 60 or 120 min at room temperature or 37°C for the respective membranes. The reaction was stopped by rapid filtration onto GF/C filter plates (presoaked in 0.5% polyethyleneimine) using FilterMate (Perkin Elmer) cell harvester and washed with wash buffer (200 μl for 5 times) to remove unbound ligands. The filter plates were dried at 60°C for 15 minutes before the application of Bottom Seal and addition of 50 μl MicroScint-O scintillation cocktail. The top of the plate was then sealed with TopSeal A. Radioactivity (CPM) was counted using TopCount NXT microplate scintillation counter (Perkin-Elmer). The data were analyzed by non-linear regression using Prism Version 5.0 (GraphPad Inc., San Diego CA, USA). The percentage of specific binding of radioligand in the presence of test compounds was calculated using the standard data reduction algorithm: ([B-NSB] / [TB-NSB]) × 100) where B is the binding in the presence of test compounds, NSB is the non-specific binding in the presence of excess reference ligand and TB is the total binding. K i values were calculated from the IC50 values using the Cheng-Prusoff equation [26].

Test [2] concerns the target T2, 5-HT1A receptor (recombinant human membrane, HEK293 cells) (Homo sapiens, UniProt P08908).
T2 construct: purchased Perkin Elmer Lot no; 1812363; host or cells: HEK293 cells
T2 sequence (P08908 1-422): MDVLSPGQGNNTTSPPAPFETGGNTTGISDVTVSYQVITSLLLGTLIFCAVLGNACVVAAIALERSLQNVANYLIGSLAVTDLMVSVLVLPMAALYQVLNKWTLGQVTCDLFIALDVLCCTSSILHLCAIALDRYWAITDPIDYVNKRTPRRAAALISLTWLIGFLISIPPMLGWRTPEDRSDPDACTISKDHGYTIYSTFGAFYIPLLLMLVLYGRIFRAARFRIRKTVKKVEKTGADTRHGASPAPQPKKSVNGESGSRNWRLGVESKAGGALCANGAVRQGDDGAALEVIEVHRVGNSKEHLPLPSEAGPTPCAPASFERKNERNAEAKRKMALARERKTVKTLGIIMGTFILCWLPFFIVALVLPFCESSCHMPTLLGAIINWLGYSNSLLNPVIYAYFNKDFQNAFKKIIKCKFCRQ
Nature of the test: radioligand receptor binding assay, [3H]-8-OH-DPAT displacement. The conditions noted are these: mean ± S.D.; 2 nM [3H]-8-OH-DPAT; assayed up to 100 or 30 μM.
Description: as §1, §2

The target in test [3] is T3, 5-HT2A receptor (recombinant human membrane, CHO cells) (Homo sapiens, UniProt P28223).
T3 construct: purchased Perkin Elmer Lot no; 1813092; host or cells: CHO cells
T3 sequence (P28223 whole entry): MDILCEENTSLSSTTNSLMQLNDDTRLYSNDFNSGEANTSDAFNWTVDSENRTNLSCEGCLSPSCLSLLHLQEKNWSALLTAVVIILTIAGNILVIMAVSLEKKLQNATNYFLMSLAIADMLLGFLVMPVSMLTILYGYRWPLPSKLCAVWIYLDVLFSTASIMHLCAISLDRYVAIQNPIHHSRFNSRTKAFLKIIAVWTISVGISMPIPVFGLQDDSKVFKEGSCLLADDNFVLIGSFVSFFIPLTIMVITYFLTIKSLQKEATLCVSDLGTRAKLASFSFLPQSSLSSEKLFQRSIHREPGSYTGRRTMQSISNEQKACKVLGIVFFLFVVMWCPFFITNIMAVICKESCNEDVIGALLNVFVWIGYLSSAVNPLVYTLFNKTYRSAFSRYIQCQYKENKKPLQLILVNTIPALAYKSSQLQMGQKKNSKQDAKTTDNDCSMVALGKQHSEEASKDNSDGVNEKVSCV
The test is described as follows: radioligand receptor binding assay, [3H]-ketanserin displacement. The conditions noted are these: for IC50: mean ± S.D., 1 nM [3H]-ketanserin, assayed up to 100 or 30 μM.
Description: as §1, §2

The target in test [4] is T4, D1 receptor (recombinant human membrane, L cells) (Homo sapiens, UniProt P21728).
T4 construct: purchased Perkin Elmer Lot no; 1840059; host or cells: L cells
T4 sequence (P21728 whole entry): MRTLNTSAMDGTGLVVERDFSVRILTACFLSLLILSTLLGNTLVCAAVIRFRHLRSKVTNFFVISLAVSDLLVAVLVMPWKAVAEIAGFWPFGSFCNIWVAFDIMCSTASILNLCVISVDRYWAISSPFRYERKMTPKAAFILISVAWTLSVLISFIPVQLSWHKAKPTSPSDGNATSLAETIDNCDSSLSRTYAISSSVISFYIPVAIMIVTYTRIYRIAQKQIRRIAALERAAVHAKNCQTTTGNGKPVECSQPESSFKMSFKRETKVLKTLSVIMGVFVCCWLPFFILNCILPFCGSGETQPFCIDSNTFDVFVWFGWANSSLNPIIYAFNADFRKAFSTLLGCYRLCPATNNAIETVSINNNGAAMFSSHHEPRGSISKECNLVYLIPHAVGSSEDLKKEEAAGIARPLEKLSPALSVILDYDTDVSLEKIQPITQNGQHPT
Nature of the test: radioligand receptor binding assay, [3H]-SCH 23390 displacement. The conditions noted are these: for IC50: mean ± S.D., 0.2 nM [3H]-SCH 23390, assayed up to 100 or 30 μM.
Description: as §1, §2

For test [5], the target named is T5, D2S receptor (recombinant human membrane, CHO cells) (Homo sapiens, UniProt P14416).
T5 construct: purchased Perkin Elmer Lot no; 1820984; host or cells: CHO cells
T5 sequence (P14416 1-414 isoform P14416-2): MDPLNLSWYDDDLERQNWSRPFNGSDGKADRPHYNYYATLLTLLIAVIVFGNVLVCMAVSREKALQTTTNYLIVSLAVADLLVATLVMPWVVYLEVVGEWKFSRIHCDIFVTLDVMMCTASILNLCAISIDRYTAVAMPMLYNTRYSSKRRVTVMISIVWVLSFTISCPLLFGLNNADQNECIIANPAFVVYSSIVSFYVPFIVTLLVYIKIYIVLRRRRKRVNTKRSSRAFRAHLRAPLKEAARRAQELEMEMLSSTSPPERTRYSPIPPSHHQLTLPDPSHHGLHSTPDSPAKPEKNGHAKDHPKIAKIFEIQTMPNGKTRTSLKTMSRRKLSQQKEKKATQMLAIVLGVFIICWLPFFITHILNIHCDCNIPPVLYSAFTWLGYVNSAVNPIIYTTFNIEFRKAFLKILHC
Nature of the test: radioligand receptor binding assay, [3H]-methylspiperone displacement. The conditions noted are these: mean ± S.D.; 0.2 nM [3H]-methylspiperone; assayed up to 100 or 30 μM; read-out: IC50 D2.
Description: as §1, §2

The target in a further test is M1. On the set-up: method as in PMID 24979399. The conditions noted are these: M1 agonists; cited from earlier work.
Setting [6] is: from IC50 by Cheng-Prusoff equation.

For orientation: IC50 means the midpoint of a concentration-inhibition curve. In general, Ki refers to the dissociation constant of the complex between target and ligand, obtained from inhibition or displacement.

As for `CC(C)=C[C@H]1C[C@](C)(O)[C@@H]2[C@H]3CC[C@@H]4[C@@]5(C)CC[C@H](O[C@@H]6OC[C@H](O)[C@H](O[C@@H]7O[C@H](CO)[C@@H](O)[C@H](O)[C@H]7O)[C@H]6O[C@@H]6O[C@@H](CO)[C@H](O)[C@H]6O)C(C)(C)[C@@H]5CC[C@@]4(C)[C@@]34CO[C@@]2(C4)O1` [Bacopaside X, bacopaside X], the IC50 in test [1] is greater than 100 µM; in test [2] it was greater than 100 µM; in test [3] it was greater than 100 µM; in test [4] it was 19.5 ± 3.07 µM; in test [5] it was greater than 100 µM. For the same compound, the Ki in test [4] (setting [6]) is 9.06 µM.
On to `CC(=O)OCC[N+](C)(C)C` [acetylcholine], for which, on M1, the Ki is 59 µM.
Consider `CC(C)=C[C@@H]1CO[C@]23C[C@]4(CO2)[C@H](CC[C@@H]2[C@@]5(C)CC[C@H](O[C@@H]6OC[C@H](O)[C@H](O[C@@H]7O[C@H](CO)[C@@H](O)[C@H](O)[C@H]7O)[C@H]6O[C@@H]6O[C@@H](CO)[C@H](O)[C@H]6O)C(C)(C)[C@@H]5CC[C@]24C)[C@H]3[C@@]1(C)O` [Bacopasaponin C, bacopasaponin C], for which the IC50 in test [1], in test [2], in test [3], in test [4] and in test [5] was greater than 100 µM throughout.
On to `CC(C)=CC1CC(C)(O)C2C3CCC4C5(C)CCC(O)C(C)(C)C5CCC4(C)C34COC2(C4)O1` (stereo not shown) [Jujubogenin, jujubogenin], for which the IC50 in test [1], in test [2], in test [3], in test [4] and in test [5] was greater than 30 µM throughout.
`CC(C)=C[C@H]1C[C@](C)(O)[C@@H]2[C@H]3CC[C@@H]4[C@@]5(C)CC[C@H](O[C@@H]6O[C@H](CO)[C@@H](O)[C@H](O[C@@H]7O[C@H](CO)[C@@H](O)[C@H](O)[C@H]7O)[C@H]6O[C@@H]6O[C@@H](CO)[C@H](O)[C@H]6O)C(C)(C)[C@@H]5CC[C@@]4(C)[C@@]34CO[C@@]2(C4)O1` [Bacoside A3, bacoside A3]: the IC50 in test [1], in test [2], in test [3], in test [4] and in test [5] was greater than 100 µM in each case.
With `CC(C)=CC=CC(C)=CC1CCC2C3(C)CCC(O)C(C)(C)C3CCC2(C)C12COC(=O)C2` (stereo not shown) [Ebelin Lactone, ebelin lactone], the results for the Ki in test [1] (setting [6]) and in test [3] (setting [6]) were 0.45 µM and 4.21 µM, respectively. The IC50 was 0.8 ± 0.19 µM in test [1]; greater than 30 µM in test [2]; 14.5 ± 4.98 µM in test [3]; greater than 30 µM in test [4]; greater than 30 µM in test [5].
In the case of `CC(C)=CC1COC23CC4(CO2)C(CCC2C5(C)CCC(OC6OC(CO)C(O)C(OC7OC(CO)C(O)C(O)C7O)C6OC6OC(CO)C(O)C6O)C(C)(C)C5CCC24C)C3C1(C)O` (stereo not shown) [Bacopaside II, bacopaside II], the IC50 in test [1], in test [2], in test [3], in test [4] and in test [5] was greater than 30 µM each time.
